Literature values in patent publication US20060088617A1, “Chocolate composition and method for benefiting the cardiovascular system” (priority 2004, published 2006).

Tested on: blood vessel function
Settings: after consumption of flavonoid-rich dark chocolate

absorption of epicatechin in the blood: absorbed at high levels in the blood
Structure (SMILES): Oc1cc(O)c2c(c1)O[C@H](c1ccc(O)c(O)c1)[C@H](O)C2 [epicatechin]
